# Measured values published in paper PMC3930709, “Selective Activation of hTRPV1 by N-Geranyl Cyclopropylcarboxamide, an Amiloride-Insensitive Salt Taste Enhancer” (PLoS ONE, 2014).
# Biological target: T1, hTRPA1 (Homo sapiens, UniProt O75762)
# T1 construct: expressed in transfected cells
# Test: Whole-cell patch clamp recording, cells stably expressing hTRPA1
# Assay type: cell-based
# Settings: AITC 100 µM; NGCC 10^3 µM; holding -80 mV
# Procedure: Flp-In 293 cell lines stably expressing hTRPA1constructed as previously reported was a gift from the professor Takumi Misaka at University of Tokyo. The hTRPA1-expressing cells were cultured in DMEM containing 10% FBS and 0.02% hygromycin B (Invitrogen). Flp-In 293 cell lines were maintained in DMEM containing 10% FBS. All cells were incubated at 37°C in a humidified atmosphere of 5% CO2.
# The whole-cell configuration was used to voltage-clamp at room temperature (22–25°C). Electrodes pulled from glass micropipette capillaries (Sutter Instrument) had resistances of 2–2.5 MΩ, and series resistance errors were compensated >60%. Fast and slow capacitances were compensated before the application of test-pulse. Recordings were performed using aHEKAEPC-10 amplifier with pulse software (HEKA Elektronik). The pipette solution contained: 140 mM KCl, 5 mM MgCl2, 10 mM HEPES, 0.1 mM 1,2-bis(2-aminophenoxy) ethane N,N,N’,N’-tetraacetic acid(BAPTA), 3 mM Na2ATP, and 0.1 mM Na3GTP, adjusted to pH 7.4 with KOH. The external Ringer’s solution used for recording TRPV1 and TRPA1 currents contained: 150 mM NaCl, 5 mM KCl, 1 mM MgCl2, 2 mM EGTA, 10 mM Glucose, and 10 mM HEPES, adjusted to pH 7.4 with NaOH. TRPV1 and TRPA1 currents were recorded by holding the cell at −80 mV. The external Ringer’s solution used for recording ASIC current contained: 160 mM NaCl, 5 mM KCl, 1 mM MgCl2, 2 mM CaCl2, and 10 mM HEPES, adjusted to pH 7.4 with tetramethylammonium hydroxide. For acidic solution of pH 6.0, HEPES was replaced with MES. ASIC currents were recorded by holding the cell at −70 mV. Reagents were obtained as follows: BAPTA, Na2ATP, Na3GTP, EGTA, and tetramethylammonium hydroxide (Sigma), HEPES (Calbiochem), MES (Alfa Aesar), and other chemicals (Merck).
# T1 sequence (O75762 whole entry): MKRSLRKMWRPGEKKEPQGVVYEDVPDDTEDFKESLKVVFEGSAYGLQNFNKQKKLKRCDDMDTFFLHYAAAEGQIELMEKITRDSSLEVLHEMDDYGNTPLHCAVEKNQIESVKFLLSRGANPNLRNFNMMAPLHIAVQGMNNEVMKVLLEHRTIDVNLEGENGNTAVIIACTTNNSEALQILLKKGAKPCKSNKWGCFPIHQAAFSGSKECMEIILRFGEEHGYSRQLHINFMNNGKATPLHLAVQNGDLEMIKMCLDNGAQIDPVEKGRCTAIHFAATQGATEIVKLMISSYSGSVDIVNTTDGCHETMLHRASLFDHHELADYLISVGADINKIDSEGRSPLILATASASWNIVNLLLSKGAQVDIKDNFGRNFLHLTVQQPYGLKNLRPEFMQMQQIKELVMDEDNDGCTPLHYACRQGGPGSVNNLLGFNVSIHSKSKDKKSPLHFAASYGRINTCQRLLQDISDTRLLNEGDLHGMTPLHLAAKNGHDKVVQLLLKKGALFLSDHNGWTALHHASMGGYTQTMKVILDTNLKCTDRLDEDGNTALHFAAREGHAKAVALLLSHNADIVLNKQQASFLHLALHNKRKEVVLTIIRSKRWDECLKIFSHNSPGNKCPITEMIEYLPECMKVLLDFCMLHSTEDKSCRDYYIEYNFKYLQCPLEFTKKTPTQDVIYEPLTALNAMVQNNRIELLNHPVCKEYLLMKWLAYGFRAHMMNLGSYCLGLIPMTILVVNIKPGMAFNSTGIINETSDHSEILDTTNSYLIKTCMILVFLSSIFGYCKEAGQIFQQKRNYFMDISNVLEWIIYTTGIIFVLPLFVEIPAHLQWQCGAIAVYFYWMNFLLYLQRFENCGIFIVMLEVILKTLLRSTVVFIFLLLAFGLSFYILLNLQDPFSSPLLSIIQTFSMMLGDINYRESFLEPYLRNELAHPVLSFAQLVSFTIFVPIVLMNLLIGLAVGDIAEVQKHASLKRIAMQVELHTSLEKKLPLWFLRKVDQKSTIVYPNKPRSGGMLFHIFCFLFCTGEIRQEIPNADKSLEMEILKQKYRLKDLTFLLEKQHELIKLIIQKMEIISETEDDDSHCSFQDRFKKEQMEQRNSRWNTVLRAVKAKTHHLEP
compound,measurement,value
"C=CCN=C=S [AITC, Allylisothiocyanate]",inward current in hTRPA1-expressing cells,evoked an inward current
